Results taken from US10842793B2, “Inhibitors of the unconventional secretion of fibroblast growth factor 2 (FGF2) by tumor cells and uses thereof” (Universität Heidelberg, priority 2016, dated 2020).
Entries after “also recorded” stand apart in the source; their conditions may differ.

Target: T1, His-FGF2/GST-NΔ173 Tec (Homo sapiens, UniProt P42680)
T1 construct: made in house; host or cells: Tec: SF9 insect cells (baculovirus); FGF2: E. coli
Experiment: Alpha protein-protein interaction assay, FGF2 binding to Tec kinase
Settings: dose-response, ± SEM, four independent experiments
Experimental: Alpha® protein-protein interaction assays with His-tagged FGF2 (125 nM) and GST-NΔ173 Tec (31.25 nM) (blue spheres) as well as His-tagged MBP-CARP (20 nM) and GST-titin (20 nM) (red squares) were conducted as described in the legend of FIG. 3 and in Experimental Procedures. Additionally, as a technical control, a single fusion protein containing both a GST- and a His-tag was used (20 nM; black triangles). Dose response curves were recorded with the three active compounds (#6, #14 and #21) as well as the two control compounds (#18 and #19) (FIG. 4). For each compound four independent experiments (each of which was conducted in three technical replicates) were performed. Data points were fitted using the non-linear regression function log (inhibitor) vs. response—variable slope (four parameters). Data were evaluated using GraphPad Prism (v5 for Mac OS X). Standard deviations are shown.
A Protein-Protein Interaction Assay Designed to Screen Small Molecule Libraries for Compounds Inhibiting FGF2 Binding to Tec Kinase (Alphascreen® Assay)
To quantify the interaction of FGF2 with Tec kinase under screening conditions, an assay was established based upon Alpha® technology. Briefly, this methodology is based on a pair of proteins of interest that bind to Alpha® donor and acceptor beads, respectively. Upon excitation of donor beads at 680 nm, singlet oxygen species are produced that can diffuse within a range of 200 nm. […] This in turn causes emission of light with a wave length of 520 nm that is detected as the Alpha® signal.
The optimal concentrations of His-tagged FGF2 and GST-tagged NΔ173 Tec in the Alphascreen were determinate in a cross-titration experiment (not shown) to be 31.25 nM and 62.5 nM, respectively. […] All Alpha® assays were carried out in white low volume 384-well plates (#6008280, ProxiPlate™) and read in an EnVision plate reader (Perkin Elmer). […]
AlphaScreen experiments were performed as described above. […] Following 60 min of incubation, Alpha® signals were recorded using an EnVision™ plate reader (PerkinElmer). […]

T1 sequence (P42680 174-631 limits assumed, stated change not applied): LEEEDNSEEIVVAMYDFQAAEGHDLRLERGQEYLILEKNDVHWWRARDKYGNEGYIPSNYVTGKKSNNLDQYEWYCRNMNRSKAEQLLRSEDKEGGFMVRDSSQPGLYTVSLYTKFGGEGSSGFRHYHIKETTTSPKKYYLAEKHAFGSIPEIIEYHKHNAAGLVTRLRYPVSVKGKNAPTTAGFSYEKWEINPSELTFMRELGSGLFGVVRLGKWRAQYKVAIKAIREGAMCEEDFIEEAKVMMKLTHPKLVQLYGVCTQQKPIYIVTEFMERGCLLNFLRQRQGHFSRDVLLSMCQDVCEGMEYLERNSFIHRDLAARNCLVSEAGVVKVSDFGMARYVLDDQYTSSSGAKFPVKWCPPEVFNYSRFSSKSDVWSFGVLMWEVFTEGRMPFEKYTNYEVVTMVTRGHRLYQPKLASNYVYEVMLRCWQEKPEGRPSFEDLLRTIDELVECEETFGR

| IC50 | SMILES |
| --- | --- |
| 8.9 µM | COC(=O)c1c(C)[nH]c(C(=O)OCc2cc(=O)n3c(C)cccc3n2)c1C [compound #6] |
| 7 µM | CC(=O)c1c(C)[nH]c(C(=O)OCc2cc(=O)n3cc(Br)ccc3n2)c1C [compound #14] |
| 11.7 µM | CC(=O)c1c(C)[nH]c(C(=O)CSc2nc3cc(Cl)cnc3[nH]2)c1C [compound #21] |

Tested on: CHO cells stably expressing FGF2-GFP
Experiment: FGF2-GFP secretion by cell surface biotinylation
Assay type: cell-based
Settings: 10, 25 and 50 μM; mock 0.5% DMSO = 100%
Text: A stable CHO cell line expressing an FGF2-GFP fusion protein in a doxycycline-dependent manner was used to quantify FGF2 transport to cell surfaces in the absence and presence of the small molecule inhibitors introduced in FIGS. 4, 5, 6 and 7. As detailed in Experimental Procedures, following cultivation of cells in the presence of compounds as indicated and induction of FGF2-GFP expression, proteins localized to the cell surface were biotinylated with a membrane-impermeable reagent. Following quenching of the biotinylation reagent, biotinylated proteins were purified using streptavidin beads. Following SDS-PAGE analyzing both the total lysate (input termed “cells”; 1.7%) and the biotinylated cell surface fraction (33%), a Western analysis was conducted to detect the secreted population of FGF2-GFP. Using appropriate fluorescent secondary antibodies, both FGF2-GFP and GAPDH (used as a control protein restricted to the intracellular space) were quantified using the LI-COR Odyssey imaging platform. FGF2-GFP secretion quantified under mock conditions (0.5% DMSO) was defined as 100% secretion efficiency. Standard deviations are shown from three independent experiments, each of which was conducted in two technical replicates. A two-tailed and unpaired T-test was conducted to assess statistical significance (* p<0.05, ** p<0.01, *** p<0.001, **** p<0.0001). “NS” indicates absence of significant differences.
Secreted FGF2 remains bound to heparan sulfates on cell surfaces without release into cell culture supernatants. This allows for biochemical detection of the secreted population based upon cell surface biotinylation experiments. CHO cells stably expressing FGF2-GFP in a doxycycline-dependent manner were cultivated in the presence of compounds #6, #14, #21, #18 and #19 (see FIGS. 4 and 5) at 10 μM, 25 μM and 50 μM in 0.5% DMSO (final concentration) as well as under mock conditions. […] Using appropriate fluorescent secondary antibodies, FGF2-GFP and GAPDH were quantified using the LI-COR Odyssey imaging platform. […]

| SMILES | inhibition of FGF2 secretion from cells |
| --- | --- |
| COC(=O)c1c(C)[nH]c(C(=O)OCc2cc(=O)n3c(C)cccc3n2)c1C [compound #6] | inhibition was observed in a dose-dependent manner |
| CC(=O)c1c(C)[nH]c(C(=O)OCc2cc(=O)n3cc(Br)ccc3n2)c1C [compound #14] | inhibition was observed in a dose-dependent manner |
| CC(=O)c1c(C)[nH]c(C(=O)CSc2nc3cc(Cl)cnc3[nH]2)c1C [compound #21] | inhibition was stronger at 10 μM compared to higher concentrations; also recorded: robust inhibition at 10 μM and somewhat less efficient inhibition at 25 and 50 μM |
